Reference: ChEMBL document CHEMBL5034037, “Synthesis, Characterization, and Preclinical Evaluation of a Small-Molecule Prostate-Specific Membrane Antigen-Targeted Monomethyl Auristatin E Conjugate” (J Med Chem, 2021)
*1 amine or outer side, *2 acyl side, *3 side chain or, on linkers, in order; H or OH if unused. Where a SMILES comes first, the peptide text is derived from it. [ ]: non-standard residue; d: D form. The star is where a group is joined. GluureaLys(ε-3-ClBenzyl) = O=C(O)CC[C@H](NC(=O)N[C@@H](CCCCN(Cc1cccc(Cl)c1)*)C(=O)O)C(=O)O; Dolaproine = CO[C@@H]([C@@H]1CCCN1)[C@@H](C)C(=O)O; Dil = CC[C@H](C)[C@H](NC)[C@@H](CC(=O)O)OC; X1 = O=C(CCCc1cn(CCCN[*:1])nn1)[*:2]; PABC = O=C(OCc1ccc(N[*:1])cc1)[*:2]; X2 = C[C@@H](N*)[C@@H](O)c1ccccc1; Cit = NC(=O)NCCC[C@H](N)C(=O)O; Suc = O=C(CCC(=O)[*:2])[*:1]; NMeV = CN[C@H](C(=O)O)C(C)C; Ahx = NCCCCCC(=O)O

Assays:
[1] = test system: CWR22R; experiment: Cytotoxicity against human 22Rv1 cells expressing PMSA measured using MTT assay; type: functional
[2] = Initial plasma concentration in Wistar rat plasma at 1.5 mg/kg, iv; type: ADME, organism-based
[3] = Toxicity in rat assessed as morphological changes in gastric wall mucosa at 150 to 225 microg/kg, iv; conditions: in vivo, dose 150-225 µg/kg
[4] = Toxicity in rabbit assessed as morphological changes in duodenum at 81 to 122 microg/kg, iv; type: tissue-based, Oryctolagus cuniculus; conditions: in vivo, dose 81-122 µg/kg
[5] = Toxicity in rat assessed as morphological changes in lungs at 150 to 225 microg/kg, iv; conditions: in vivo, dose 150-225 µg/kg
[6] = Toxicity in rabbit assessed as morphological changes in lungs at 81 to 122 microg/kg, iv; parameters: species or system Oryctolagus cuniculus; conditions: in vivo, dose 81-122 µg/kg
[7] = Toxicity in rat assessed as morphological changes in capsule of the kidney at 150 to 225 microg/kg, iv; type: tissue-based; conditions: in vivo, dose 150-225 µg/kg
[8] = Toxicity in rabbit assessed as morphological changes in adrenal gland at 81 to 122 microg/kg, iv; type: tissue-based, Oryctolagus cuniculus; conditions: in vivo, dose 81-122 µg/kg
[9] = Toxicity in rabbit assessed as morphological changes in thymus at 81 to 122 microg/kg, iv; type: tissue-based, Oryctolagus cuniculus; conditions: in vivo, dose 81-122 µg/kg
[10] = Toxicity in rat assessed as morphological changes in brain gyrus at 150 to 225 microg/kg, iv; type: tissue-based; conditions: in vivo, dose 150-225 µg/kg
[11] = Toxicity in rabbit assessed as morphological changes in brain sulcus at 81 to 122 microg/kg, iv; type: tissue-based, Oryctolagus cuniculus; conditions: in vivo, dose 81-122 µg/kg
[12] = Toxicity in rat assessed as morphological changes in brain sulcus at 150 to 225 microg/kg, iv; type: tissue-based; conditions: in vivo, dose 150-225 µg/kg
[13] = Toxicity in rabbit assessed as morphological changes in cerebral membrane at 81 to 122 microg/kg, iv; parameters: species or system Oryctolagus cuniculus; conditions: in vivo, dose 81-122 µg/kg
[14] = Toxicity in rat assessed as morphological changes in cerebral membrane at 150 to 225 microg/kg, iv; conditions: in vivo, dose 150-225 µg/kg
[15] = Toxicity in mouse xenografted with human 22Rv1 cells assessed as early fell at 0.6 mg/kg, ip daily treated for 5 days after 18 days of tumor implantation measured upto 10 days; type: organism-based, CWR22R; conditions: in vivo, 120 h, time 5 day
[16] = Toxicity in rabbit assessed as change in body weight at 0.3 mg/kg, iv measured after 20 days; type: organism-based, Oryctolagus cuniculus; conditions: in vivo, 480 h, time 20 day
[17] = Half life in rabbit at 0.81 mg/kg, iv; type: ADME, organism-based, Oryctolagus cuniculus; conditions: in vivo
[18] = Clearance in rabbit at 0.81 mg/kg, iv; type: ADME, organism-based, Oryctolagus cuniculus; conditions: in vivo
[19] = biological target: T1, Cytochrome P450 1A2 (Homo sapiens, UniProt P05177); experiment: Inhibition of CYP1A2 in human liver microsome using phenacetin as substrate; type: ADME, microsomes
T1 sequence (P05177 whole entry): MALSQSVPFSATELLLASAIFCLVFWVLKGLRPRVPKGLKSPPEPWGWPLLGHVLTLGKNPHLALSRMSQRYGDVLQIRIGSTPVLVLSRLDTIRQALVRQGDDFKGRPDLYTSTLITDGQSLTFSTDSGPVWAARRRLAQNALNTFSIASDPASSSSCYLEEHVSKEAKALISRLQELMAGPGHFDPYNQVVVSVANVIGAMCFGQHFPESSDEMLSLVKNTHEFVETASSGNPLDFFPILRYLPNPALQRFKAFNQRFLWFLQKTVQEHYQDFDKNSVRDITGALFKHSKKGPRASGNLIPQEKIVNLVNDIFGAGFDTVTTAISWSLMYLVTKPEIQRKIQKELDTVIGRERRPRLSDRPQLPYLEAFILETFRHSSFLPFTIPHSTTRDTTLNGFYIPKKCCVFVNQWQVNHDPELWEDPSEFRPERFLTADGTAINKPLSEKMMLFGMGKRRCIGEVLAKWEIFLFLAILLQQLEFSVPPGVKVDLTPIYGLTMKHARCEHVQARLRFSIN

[20] = Stability of the compound in human liver microsome; type: ADME; conditions: microsomes
[21] = biological target: Cytochrome P450 2C9 (Homo sapiens, UniProt P11712); experiment: Drug metabolism assessed as human liver microsome CYP2C9-mediatd metabolism; type: ADME; conditions: microsomes
Cytochrome P450 2C9, sequence (P11712 whole entry): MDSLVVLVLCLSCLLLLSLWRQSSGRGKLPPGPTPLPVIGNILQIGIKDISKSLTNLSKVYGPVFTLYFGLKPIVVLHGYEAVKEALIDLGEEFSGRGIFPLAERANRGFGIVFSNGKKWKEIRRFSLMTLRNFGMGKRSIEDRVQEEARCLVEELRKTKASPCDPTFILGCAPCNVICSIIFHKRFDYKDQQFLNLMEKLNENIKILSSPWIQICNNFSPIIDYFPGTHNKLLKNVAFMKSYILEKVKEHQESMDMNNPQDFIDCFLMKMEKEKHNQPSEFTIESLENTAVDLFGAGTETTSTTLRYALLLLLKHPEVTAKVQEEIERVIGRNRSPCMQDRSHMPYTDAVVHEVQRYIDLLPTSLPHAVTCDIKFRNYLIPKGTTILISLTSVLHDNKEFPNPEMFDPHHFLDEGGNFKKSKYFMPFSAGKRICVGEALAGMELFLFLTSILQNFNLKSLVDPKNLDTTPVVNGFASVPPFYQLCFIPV

[22] = biological target: Cytochrome P450 2D6 (Homo sapiens, UniProt P10635); experiment: Drug metabolism assessed as human liver microsome CYP2D6-mediatd metabolism; type: ADME; conditions: microsomes
Cytochrome P450 2D6, sequence (P10635 whole entry): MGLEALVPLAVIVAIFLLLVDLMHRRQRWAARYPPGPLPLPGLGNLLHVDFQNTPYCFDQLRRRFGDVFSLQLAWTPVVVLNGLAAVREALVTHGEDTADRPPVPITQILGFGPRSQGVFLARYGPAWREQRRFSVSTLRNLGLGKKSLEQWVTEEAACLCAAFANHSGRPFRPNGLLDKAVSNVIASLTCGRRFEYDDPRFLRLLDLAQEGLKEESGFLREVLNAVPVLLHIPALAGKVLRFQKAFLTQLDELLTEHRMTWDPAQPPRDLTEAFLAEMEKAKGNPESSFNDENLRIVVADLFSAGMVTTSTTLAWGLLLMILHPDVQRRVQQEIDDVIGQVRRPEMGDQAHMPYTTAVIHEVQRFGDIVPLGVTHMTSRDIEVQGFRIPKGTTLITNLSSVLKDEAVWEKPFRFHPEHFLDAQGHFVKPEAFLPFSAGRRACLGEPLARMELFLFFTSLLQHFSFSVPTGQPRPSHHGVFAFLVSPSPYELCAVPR

[23] = biological target: T2, Cytochrome P450 2C8 (Homo sapiens, UniProt P10632); experiment: Drug metabolism assessed as human liver microsome CYP2C8-mediatd metabolism; type: ADME; conditions: microsomes
T2 sequence (P10632 whole entry): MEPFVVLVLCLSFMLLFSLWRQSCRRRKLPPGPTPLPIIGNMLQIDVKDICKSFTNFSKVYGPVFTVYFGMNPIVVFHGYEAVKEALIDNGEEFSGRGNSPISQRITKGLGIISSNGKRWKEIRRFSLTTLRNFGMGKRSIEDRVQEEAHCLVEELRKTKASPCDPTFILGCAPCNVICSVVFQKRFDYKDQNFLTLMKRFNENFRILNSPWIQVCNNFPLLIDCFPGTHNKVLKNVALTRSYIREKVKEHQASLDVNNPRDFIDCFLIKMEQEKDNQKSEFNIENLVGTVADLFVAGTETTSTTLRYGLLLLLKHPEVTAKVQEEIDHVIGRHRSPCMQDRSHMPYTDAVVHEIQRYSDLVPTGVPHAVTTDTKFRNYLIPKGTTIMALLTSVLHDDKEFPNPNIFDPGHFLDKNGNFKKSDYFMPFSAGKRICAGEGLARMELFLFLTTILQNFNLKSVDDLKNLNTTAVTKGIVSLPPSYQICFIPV

[24] = test system: Salmonella typhimurium; experiment: Mutagenecity in Salmonella typhimurium TA100 in presence of metabolic activation system at 1 ug/ml by Ames test; type: toxicity, organism-based; conditions: salmonella enterica subsp. enterica serovar typhimurium; dose 1 µg/ml
[25] = test system: Salmonella typhimurium; experiment: Mutagenecity in Salmonella typhimurium TA98 in presence of metabolic activation system at 1 ug/ml by Ames test; type: toxicity, organism-based; conditions: salmonella enterica subsp. enterica serovar typhimurium; dose 1 µg/ml
[26] = test system: Salmonella typhimurium; experiment: Mutagenecity in Salmonella typhimurium TA100 in presence of metabolic activation system at 10 ug/ml by Ames test; type: toxicity, organism-based; conditions: salmonella enterica subsp. enterica serovar typhimurium; dose 10 µg/ml
[27] = test system: Salmonella typhimurium; experiment: Mutagenecity in Salmonella typhimurium TA97 in presence of metabolic activation system at 10 ug/ml by Ames test; type: toxicity, organism-based; conditions: salmonella enterica subsp. enterica serovar typhimurium; dose 10 µg/ml
[28] = test system: Salmonella typhimurium; experiment: Mutagenecity in Salmonella typhimurium TA97 in presence of metabolic activation system at 10000 ug/ml by Ames test; type: toxicity, organism-based; conditions: salmonella enterica subsp. enterica serovar typhimurium; dose 10000 µg/ml
[29] = test system: Salmonella typhimurium; experiment: Mutagenecity in Salmonella typhimurium TA100 without metabolic activation system at 10000 ug/ml by Ames test; type: toxicity, organism-based; conditions: salmonella enterica subsp. enterica serovar typhimurium; dose 10000 µg/ml
[30] = test system: Salmonella typhimurium; experiment: Mutagenecity in Salmonella typhimurium TA97 without metabolic activation system at 10000 ug/ml by Ames test; type: toxicity, organism-based; conditions: salmonella enterica subsp. enterica serovar typhimurium; dose 10000 µg/ml
[31] = test system: Salmonella typhimurium; experiment: Mutagenecity in Salmonella typhimurium TA97 without metabolic activation system at 1000 ug/ml by Ames test; type: toxicity, organism-based; conditions: salmonella enterica subsp. enterica serovar typhimurium; dose 1000 µg/ml
[32] = test system: Salmonella typhimurium; experiment: Mutagenecity in Salmonella typhimurium TA98 without metabolic activation system at 100 ug/ml by Ames test; type: toxicity, organism-based; conditions: salmonella enterica subsp. enterica serovar typhimurium; dose 100 µg/ml
[33] = test system: Salmonella typhimurium; experiment: Mutagenecity in Salmonella typhimurium TA97 without metabolic activation system at 100 ug/ml by Ames test; type: toxicity, organism-based; conditions: salmonella enterica subsp. enterica serovar typhimurium; dose 100 µg/ml

Q: Which CC50 [1] does the source give for CC[C@H](C)[C@@H]([C@@H](CC(=O)N1CCC[C@H]1[C@H](OC)[C@@H](C)C(=O)N[C@H](C)[C@@H](O)c1ccccc1)OC)N(C)C(=O)[C@@H](NC(=O)[C@H](C(C)C)N(C)C(=O)OCc1ccc(NC(=O)[C@H](CCCNC(N)=O)NC(=O)[C@@H](NC(=O)CCCc2cn(CCCNC(=O)[C@H](Cc3ccc(O)cc3)NC(=O)[C@H](Cc3ccccc3)NC(=O)CCC(=O)NCCCCCC(=O)N(CCCC[C@H](NC(=O)N[C@@H](CCC(=O)O)C(=O)O)C(=O)O)Cc3cccc(Cl)c3)nn2)C(C)C)cc1)C(C)C ({GluureaLys(ε-3-ClBenzyl)-Ahx-Suc}-FY[X1]V[Cit][PABC][NMeV]V[Dil][Dolaproine]-X2) here?
A: Its CC50 is 29 nM.

Q: What about the C0 [2] of the same molecule?
A: Its C0 is 31000 ng/mL.

Q: What about the Activity [3] of the same molecule?
A: Its Activity is “Non-Toxic”.

Q: What about the Activity [4] of the same molecule?
A: The Activity was “Non-Toxic”.

Q: What about the Activity [5] of the same molecule?
A: The Activity was “Non-Toxic”.

Q: And the Activity [6]?
A: The Activity was “Non-Toxic”.

Q: And the Activity [7]?
A: The Activity was “Non-Toxic”.

Q: What about the Activity [8] of the same molecule?
A: The Activity was “Non-Toxic”.

Q: And the Activity [9]?
A: Its Activity is “Non-Toxic”.

Q: And the Activity [10]?
A: Its Activity is “Non-Toxic”.

Q: What about the Activity [11] of the same molecule?
A: The Activity was “Non-Toxic”.

Q: What about the Activity [12] of the same molecule?
A: The Activity was “Non-Toxic”.

Q: What about the Activity [13] of the same molecule?
A: The Activity was “Non-Toxic”.

Q: What about the Activity [14] of the same molecule?
A: Its Activity is “Non-Toxic”.

Q: And the Activity [15]?
A: The Activity was “Toxic”.

Q: And the Activity [16]?
A: The Activity was “Non-Toxic”.

Q: And the half-life [17]?
A: The half-life was 4.6 h.

Q: What about the clearance [18] of the same molecule?
A: Its clearance is 0.4 mL/min/kg.

Q: What about the IC50 [19] of the same molecule?
A: Its IC50 is > 25000 nM.

Q: What about the Stability [20] of the same molecule?
A: The Stability was “Unstable”.

Q: What about the Drug metabolism [21] of the same molecule?
A: The Drug metabolism was “Metabolite_Notdetected”.

Q: And the Drug metabolism [22]?
A: Its Drug metabolism is “Metabolite_Notdetected”.

Q: And the Drug metabolism [23]?
A: The Drug metabolism was “Metabolite_Notdetected”.

Q: And the Activity [24]?
A: The Activity was “Non-Toxic”.

Q: What about the Activity [25] of the same molecule?
A: Its Activity is “Non-Toxic”.

Q: What about the Activity [26] of the same molecule?
A: The Activity was “Non-Toxic”.

Q: And the Activity [27]?
A: The Activity was “Non-Toxic”.

Q: And the Activity [28]?
A: The Activity was “Non-Toxic”.

Q: What about the Activity [29] of the same molecule?
A: The Activity was “Non-Toxic”.

Q: And the Activity [30]?
A: The Activity was “Non-Toxic”.

Q: And the Activity [31]?
A: Its Activity is “Non-Toxic”.

Q: And the Activity [32]?
A: The Activity was “Non-Toxic”.

Q: What about the Activity [33] of the same molecule?
A: Its Activity is “Non-Toxic”.
